Source: patent US11560385B2, “Proteasome activity enhancing compounds” (Proteostasis Therapeutics, Inc., priority 2018, dated 2023)

Experiments:
USP14 [1] = target: T1, USP14 (Homo sapiens (Human), UniProt P54578); assay: Usp14 inhibition assay (Example 5A, A-series compounds); assay type: biochemical; details: average value from a minimum of two experimental determinations; read-out: Usp14 IC50 Category
Source text: Example 5A: Usp14 Inhibition Assay
(§1) The IC50 values in the Table below represent the average value from a minimum of two experimental determinations.

USP14 [2] = target: T1, USP14; assay: Usp14 inhibition assay (Example 57B, B-series compounds); assay type: biochemical; details: IC50 class; average value from a minimum of two experimental determinations
Source text: Example 57B: Usp14 Inhibition Assay
as §1

T1 sequence (P54578 whole entry, looked up): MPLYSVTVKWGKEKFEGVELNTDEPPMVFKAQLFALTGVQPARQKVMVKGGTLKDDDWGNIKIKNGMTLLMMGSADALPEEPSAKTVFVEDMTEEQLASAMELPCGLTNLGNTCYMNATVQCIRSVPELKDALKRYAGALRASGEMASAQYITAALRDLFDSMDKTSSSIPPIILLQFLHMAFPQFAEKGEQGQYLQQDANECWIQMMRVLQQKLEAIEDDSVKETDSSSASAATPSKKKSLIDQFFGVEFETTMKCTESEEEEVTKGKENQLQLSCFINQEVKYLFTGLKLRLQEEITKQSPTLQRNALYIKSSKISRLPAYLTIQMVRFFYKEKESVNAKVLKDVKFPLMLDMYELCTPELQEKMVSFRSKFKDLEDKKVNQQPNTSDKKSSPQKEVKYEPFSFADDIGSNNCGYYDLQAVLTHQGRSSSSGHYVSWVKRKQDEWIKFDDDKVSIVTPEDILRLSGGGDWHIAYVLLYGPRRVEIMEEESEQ

Row | SMILES | IC50 (USP14 [1]) [nM] | IC50 (USP14 [2]) [nM]
1 | Cc1c(C(=O)CN2C3CCC2CC(O)C3)c2ccc(CCC3=NCCN3C)cc2n1-c1ccc(Cl)cc1 [Example 29A, 1-(1-(4-Chlorophenyl)-2-methyl-6-(2-(1-methyl-4,5-dihydro-1H-bimidazol-2-yl)ethyl)-1H-indol-3-yl)-2-((1R,3R,5S)-3-hydroxy-8-azabicyclo[3.2.1]octan-8-yl)ethan-1-one] | < 50 | –
2 | Cc1c(C(=O)CN2[C@@H]3CC[C@H]2C[C@](O)(C(C)C)C3)c2ccc(CCC#N)cc2n1-c1ccc(Cl)cc1 [Example 32A, 3-(1-(4-Chlorophenyl)-3-(2-(3-hydroxy-3-isopropyl-8-azabicyclo[3.2.1]octan-8-yl)acetyl)-2-methyl-1H-indol-6-yl)propanenitrile] | 50 to 100 | –
3 | Cc1c(C(=O)CN2[C@H]3CC[C@@H]2[C@@H](O)C3)c2ccc(CCS(C)(=O)=O)cc2n1-c1ccc(Cl)cc1 [Example 6A, 1-(1-(4-Chlorophenyl)-2-methyl-6-(2-(methylsulfonyl)ethyl)-1H-indol-3-yl)-2-((1R,2S,4S)-2-hydroxy-7-azabicyclo[2.2.1]heptan-7-yl)ethan-1-one] | < 50 | –
4 | Cc1c(C(=O)CN2C3CCC2CC(O)C3)c2ccc(CCS(=O)(=O)C3CC3)cc2n1-c1ccc(Cl)cc1 [Example 23A, 1-(1-(4-Chlorophenyl)-6-(2-(cyclopropylsulfonyl)ethyl)-2-methyl-1H-indol-3-yl)-2-((1R,3R,5S)-3-hydroxy-8-azabicyclo[3.2.1]octan-8-yl)ethan-1-one] | < 50 | –
5 | Cc1c(C(=O)CN2C3CCC2CC(O)C3)c2ccc(CC3COC3)cc2n1-c1ccc(Cl)cc1 [Example 27A, 1-(1-(4-Chlorophenyl)-2-methyl-6-(oxetan-3-ylmethyl)-1H-indol-3-yl)-2-((1R,3S,5S)-3-hydroxy-8-azabicyclo[3.2.1]octan-8-yl)ethan-1-one] | > 100 | –
6 | Cc1c(C(=O)CN2C3CC[C@@H]2C[C@](O)(C(C)(C)C)C3)c2ccc(CCC#N)cc2n1-c1ccc(Cl)cc1 (stereo in doubt) [Example 31A, 3-(3-(2-(3-(tert-Butyl)-3-hydroxy-8-azabicyclo[3.2.1]octan-8-yl)acetyl)-1-(4-chlorophenyl)-2-methyl-1H-indol-6-yl)propanenitrile] | > 100 | –
7 | CO[C@H]1C[C@@H]2CC[C@H]1N2CC(=O)c1c(C)n(-c2ccc(Cl)cc2)c2cc(CC3COC3)ccc12 [Example 12A, 1-(1-(4-Chlorophenyl)-2-methyl-6-(oxetan-3-ylmethyl)-1H-indol-3-yl)-2-((1R,2S,4S)-2-methoxy-7-azabicyclo[2.2.1]heptan-7-yl)ethan-1-one] | 50 to 100 | –
8 | Cc1c(C(=O)CN2C3CCC2[C@@H](O)C3)c2ccc(CCCC#N)cc2n1-c1ccc(Cl)cc1 (mixture of isomers) [Example 18A, (±)-4-(1-(4-Chlorophenyl)-3-(2-((2S)-2-hydroxy-7-azabicyclo[2.2.1]heptan-7-yl)acetyl)-2-methyl-1H-indol-6-yl)butanenitrile] | < 50 | –
9 | Cc1c(C(=O)CN2C3CCC2CC3)c2ccc(CC#N)cc2n1-c1ccc(Cl)cc1 [Example 30A] | 50 to 100 | –
10 | Cc1c(C(=O)CN2C3CCC2C(O)C3)c2ccc(CC3COC3)cc2n1-c1ccc(Cl)cc1 (stereo in doubt) [Example 13A, 1-(1-(4-Chlorophenyl)-2-methyl-6-(oxetan-3-ylmethyl)-1H-indol-3-yl)-2-((1R,2R,4S)-2-hydroxy-7-azabicyclo[2.2.1]heptan-7-yl)ethan-1-one] | < 50 | –
11 | Cc1c(C(=O)CN2[C@@H]3CC[C@H]2C[C@H](O)C3)c2ccc(CCC#N)cc2n1-c1ccc(Cl)cc1 [Example 21A, 3-(1-(4-Chlorophenyl)-3-(2-((1R,3S,5S)-3-hydroxy-8-azabicyclo[3.2.1]octan-8-yl)acetyl)-2-methyl-1H-indol-6-yl)propanenitrile] | 50 to 100 | –
12 | Cc1c(C(=O)CN2CCC(O)CC2)c2ccc(CC3COC3)cc2n1-c1ccc(Cl)cc1 [Example 14A, 1-(1-(4-Chlorophenyl)-2-methyl-6-(oxetan-3-ylmethyl)-1H-indol-3-yl)-2-(4-hydroxypiperidin-1-yl)ethan-1-one] | 50 to 100 | –
13 | Cc1c(C(=O)CN2[C@@H]3CC[C@H]2C[C@@H](O)C3)c2ccc(CC3COC3)cc2n1-c1ccc(Cl)cc1 [Example 22A, 1-(1-(4-Chlorophenyl)-2-methyl-6-(oxetan-3-ylmethyl)-1H-indol-3-yl)-2-((1R,3r,5S)-3-hydroxy-8-azabicyclo[3.2.1]octan-8-yl)ethan-1-one] | 50 to 100 | –
14 | Cc1c(C(=O)CN2C3CCC2CC(O)C3)c2ccc(CCS(C)(=O)=O)cc2n1-c1ccc(Cl)cc1 [Example 5A, 1-(1-(4-Chlorophenyl)-2-methyl-6-(2-(methylsulfonyl)ethyl)-1H-indol-3-yl)-2-((1R,3S,5S)-3-hydroxy-8-azabicyclo[3.2.1]octan-8-yl)ethan-1-one] | < 50 | –
15 | Cc1c(C(=O)CN2CCC(O)CC2)c2ccc(CCS(C)(=O)=O)cc2n1-c1ccc(Cl)cc1 [Example 7A, 1-(1-(4-Chlorophenyl)-2-methyl-6-(2-(methylsulfonyl)ethyl)-1H-indol-3-yl)-2-(4-hydroxypiperidin-1-yl)ethan-1-one] | < 50 | –
16 | Cc1c(C(=O)CN2C3CCC2[C@@H](O)C3)c2ccc(CCC#N)cc2n1-c1ccc(Cl)cc1 (mixture of isomers) [Example 10A, (±)-3-(1-(4-Chlorophenyl)-3-(2-((2S)-2-hydroxy-7-azabicyclo[2.2.1]heptan-7-yl)acetyl)-2-methyl-1H-indol-6-yl)propanenitrile] | < 50 | –
17 | CO[C@H]1CC2CCC1N2CC(=O)c1c(C)n(-c2ccc(Cl)cc2)c2cc(CCC#N)ccc12 (mixture of isomers) [Example 15A, (±)-3-(1-(4-Chlorophenyl)-3-(2-((2S)-2-methoxy-7-azabicyclo[2.2.1]heptan-7-yl)acetyl)-2-methyl-1H-indol-6-yl)propanenitrile] | < 50 | –
18 | Cc1c(C(=O)CN2C3CCC2CC3)c2ccc(CCS(C)(=O)=O)cc2n1-c1ccc(Cl)cc1 [Example 1A, 2-(7-Azabicyclo[2.2.1]heptan-7-yl)-1-(1-(4-chlorophenyl)-2-methyl-6-(2-(methylsulfonyl)ethyl)-1H-indol-3-yl)ethan-1-one] | < 50 | –
19 | Cc1c(C(=O)CN2[C@@H]3CCC[C@H]2CC3)c2ccc(CCS(C)(=O)=O)cc2n1-c1ccc(Cl)cc1 [Example 2A, 2-((1R,5S)-8-Azabicyclo[3.2.1]octan-8-yl)-1-(1-(4-chlorophenyl)-2-methyl-6-(2-(methylsulfonyl)ethyl)-1H-indol-3-yl)ethan-1-one] | < 50 | –
20 | Cc1c(C(=O)CN2[C@@H]3CC[C@H]2C[C@H](O)C3)c2ccc(CCS(=O)(=O)C3CC3)cc2n1-c1ccc(Cl)cc1 [Example 24A, 1-(1-(4-Chlorophenyl)-6-(2-(cyclopropylsulfonyl)ethyl)-2-methyl-1H-indol-3-yl)-2-((1R,3s,5S)-3-hydroxy-8-azabicyclo[3.2.1]octan-8-yl)ethan-1-one] | 50 to 100 | –
21 | CO[C@H]1CC2CCC1N2CC(=O)c1c(C)n(-c2ccc(Cl)cc2)c2cc(CCCC#N)ccc12 (mixture of isomers) [Example 19A, (±)-4-(1-(4-Chlorophenyl)-3-(2-((2S)-2-methoxy-7-azabicyclo[2.2.1]heptan-7-yl)acetyl)-2-methyl-1H-indol-6-yl)butanenitrile] | < 50 | –
22 | Cc1c(C(=O)CN2C3CCC2CC3)c2ccc(CS(C)(=O)=O)cc2n1-c1ccc(Cl)cc1 [Example 3A, 2-(7-Azabicyclo[2.2.1]heptan-7-yl)-1-(1-(4-chlorophenyl)-2-methyl-6-((methylsulfonyl)methyl)-1H-indol-3-yl)ethan-1-one] | 50 to 100 | –
23 | Cc1c(C(=O)CN2CCC(O)CC2)c2ccc(CCC#N)cc2n1-c1ccc(Cl)cc1 [Example 9A] | > 100 | –
24 | Cc1c(C(=O)CN2[C@@H]3CC[C@H]2C[C@H](O)C3)c2ccc(CCC3=NCCN3C)cc2n1-c1ccc(Cl)cc1 [Example 28A, 1-(1-(4-Chlorophenyl)-2-methyl-6-(2-(1-methyl-4,5-dihydro-1H-imidazol-2-yl)ethyl)-1H-indol-3-yl)-2-((1R,3S,5S)-3-hydroxy-8-azabicyclo[3.2.1]octan-8-yl)ethan-1-one] | < 50 | –
25 | Cc1c(C(=O)CN2C3CCC2CC3)c2ccc(CCCC#N)cc2n1-c1ccc(Cl)cc1 [Example 17A, 4-(3-(2-(7-Azabicyclo[2.2.1]heptan-7-yl)acetyl)-1-(4-chlorophenyl)-2-methyl-1H-indol-6-yl)butanenitrile] | < 50 | –
26 | Cc1c(C(=O)CN2C3CCCC2CC3)c2ccc(CCC#N)cc2n1-c1ccc(Cl)cc1 [Example 33A, 3-(3-(2-(8-Azabicyclo[3.2.1]octan-8-yl)acetyl)-1-(4-chlorophenyl)-2-methyl-1H-indol-6-yl)propanenitrile] | < 50 | –
27 | Cc1c(C(=O)CN2C3CCC2CC(O)C3)c2ccc(CCCC#N)cc2n1-c1ccc(Cl)cc1 (stereo not drawn) [Example 25A, 4-(1-(4-Chlorophenyl)-3-(2-(3-hydroxy-8-azabicyclo[3.2.1]octan-8-yl)acetyl)-2-methyl-1H-indol-6-yl)butanenitrile] | > 100 | –
28 | Cc1c(C(=O)CN2C3CCC2CC3)c2ccc(CCS(=O)(=O)C3CC3)cc2n1-c1ccc(Cl)cc1 [Example 16A, 2-(7-Azabicyclo[2.2.1]heptan-7-yl)-1-(1-(4-chlorophenyl)-6-(2-(cyclopropylsulfonyl)ethyl)-2-methyl-1H-indol-3-yl)ethan-1-one] | < 50 | –
29 | Cc1c(C(=O)CN2C3CCC2CC(O)C3)c2ccc(CCC#N)cc2n1-c1ccc(Cl)cc1 [Example 20A, 3-(1-(4-Chlorophenyl)-3-(2-((1R,3R,5S)-3-hydroxy-8-azabicyclo[3.2.1]octan-8-yl)acetyl)-2-methyl-1H-indol-6-yl)propanenitrile] | > 100 | –
30 | Cc1c(C(=O)CN2C3CCC2CC3)cc(CCCCC#N)n1-c1ccc(Cl)cc1 [Example 31B, 5-(4-(2-(7-Azabicyclo[2.2.1]heptan-7-yl)acetyl)-1-(4-chlorophenyl)-5-methyl-1H-pyrrol-2-yl)pentanenitrile] | – | 50 to 500
